# Experimental data reported in patent US7910091B2, “System for trapping flying insects with attractant lures” (Woodstream Corporation, priority 2002, dated 2011).
# Key:
# A. albopictus [1] = assay: Hawaii field test of lactic acid lures in Mosquito Magnet traps, A. albopictus catch; assay type: in vivo, Aedes albopictus; details: w/CO2, average caught in 48 hours
# Procedure: (§1) […] Sample vials containing lactic acid impregnated frits were replaced every 2 days to ensure measurement uniformity. Measured release rates were approximately 4.0 mg/hr to 20 mg/hr. Controls were run with a Professional trap device lacking a lactic acid lure. The number of mosquitoes retained in the catch bag of the insect trapping devices was quantitated for test sample and control runs.
# (§2) The comparison between lactic acid/CO2 and CO2 only used as lures in Mosquito Magnet® Professional (PRO) and Liberty traps are shown in Table 8.
# mosquitoes [2] = assay: Hawaii field test of lactic acid lures in Mosquito Magnet traps, total mosquito catch; assay type: in vivo, Culex quinquefasciatus Aedes albopictus, et al.; details: w/CO2, average caught in 48 hours
# Procedure: as §1, §2
# mosquitoes [3] = assay: China test, Mosquito Magnet Liberty traps, total catch of mosquitoes; assay type: in vivo; details: Wuhu
# Source text: (§3) Mosquito types found in China include Culex pipiens pallens (majority), A. albopictus, Anopheles sinensis (minority), and […] subalbatus (minority). […] The daily mosquito catch depended mainly on the seasonal distribution of mosquitoes. […] Mosquito Magnet® Liberty traps were used in this example.
# flying insects = assay: Additional trap trials: lactic acid lures vs 1-octen-3-ol, Liberty trap with and without lure (FIG. 5); assay type: in vivo; details: for Insect capture counts (FIG. 5), in words: compared with CO2 only control / with lactic acid lures
# Source text: Also surprising were the results of a trial running a Mosquito Magnet® Liberty trap (American Biophysics Corporation, East Greenwich, R.I., USA) with and without lactic acid lures. […] The addition of a lactic acid lure increased the capture count to about 4,700 flying insects, a surprising enhancement over the effectiveness of the device using CO2 alone. The trial test data are graphically depicted in FIG. 5.
# [4] = cited from earlier work
# A. Albopictus [5] = assay: China test, Mosquito Magnet Liberty traps, catch of A. albopictus; assay type: in vivo; details: with CO2, Liberty trap, July 2002, Wuhu, catching in 12 hours
# Source text: as §3
# [6] = Acute toxicity LD50 oral rat; assay type: in vivo
# Source text: A particularly beneficial aspect of using biochemical lures to trap mosquitoes is the large margin of safety associated therewith, particularly when compared with traditional chemical attractants.
# [7] = @ 25° C.; cited from earlier work
# [8] = cited from earlier work; remark: listed apart in the source
# [9] = Laboratory release rate test of lactic acid from impregnated frit cartridges in exhaust nozzle; assay type: physicochemical
# Source text: Packaging of the sample L-(+)-lactic acid solution was selected with the goal of maximizing efficient dispersal of the lactic acid in the CO2 exhaust plume of the insect trapping device. […] Each frit was impregnated with was 3.5 g to 4.5 g of liquid lactic acid. Release rate testing was initially performed under laboratory conditions to assess the dispersal characteristics of L-(+)-lactic acid from impregnated frit cartridges. The sample vial with its cap removed was placed in a “basket-style” housing having numerous apertures/openings to permit release of lactic acid vapors from the impregnated frit. The housing of the supplemental insect attractant element was inserted into the exhaust nozzle of an insect trapping device. Lactic acid release was measured at two temperatures for comparison purposes. Exhaust plume temperature was set at 87° F. and then 97°°F., accordingly. […] At a constant temperature, here 87°°F., the release rate of lactic acid decreased with time. […] The useful life of a frit cartridge impregnated with liquid L-(+)-lactic acid may vary depending upon the amount of attractant initially loaded into the cartridge, and the environmental conditions to which the cartridge is subjected. The ultimate use- or release-time of a given cartridge can be tailored to meet the release rate needs of a particular environmental condition. […] Longer periods of release are anticipated for polymeric formulations of attractant compositions.
# Culex pipiens pallens = assay: China indoor test of Lurex; assay type: in vivo; details: CO2 without Lurex, Hefei basement, July 2002, catching in 24 hours
# Source text: as §3
# [10] = Liberty trap, February to March 2002
# [11] = PRO trap, February to March 2002
# [12] = PRO trap, January 2002, higher release rate
# [13] = PRO trap, January 2002, listed as Liquid lactic acid
smiles,measurement,setting,value
CC(O)C(=O)O (stereo not shown) [Solid lactic acid],Catch of A. Albopictus,A. albopictus [1]; [10],12.7
same,Catch of A. Albopictus,A. albopictus [1]; [11],52
same,Catch of A. Albopictus,"A. albopictus [1]; PRO trap, January 2002",30
same,Catch of A. Albopictus,A. albopictus [1]; [12],116
same,Total catch of mosquitoes,mosquitoes [2]; [10],2537
same,Total catch of mosquitoes,mosquitoes [2]; [11],243
same,Total catch of mosquitoes,"mosquitoes [2]; PRO trap, January 2002",136
same,Total catch of mosquitoes,mosquitoes [2]; [12],384
"C=CC(O)CCCCC (stereo not shown) [1-octen-3-ol, reference compound]",Catch of A. Albopictus,A. albopictus [1]; [11],13
same,"Sensitivity of mosquitoes in China to the chemical compared to CO2, in words","mosquitoes [3]; Hefei, Shanghai, Liberty traps",do not seem significantly sensitive
same,Total catch of mosquitoes,"mosquitoes [3]; with CO2, Liberty trap, July 2002, China, catching in 12 hours",196
same,"Insect capture counts (FIG. 5), in words",flying insects,quite inefficient
same,Flying insects trapped,"flying insects; one trial, over a two-day period, CO2 plume generating devices",less than 100
same,LD50/oral/rat,[4],340 mg/kg
same,Catch of A. Albopictus,A. Albopictus [5],14
same,Total catch of mosquitoes,mosquitoes [2]; [11],92
"CC(O)C(=O)O (stereo not drawn) [FCC 88, L(+)-lactic acid, 2-hydroxy-propionic acid]",Times less toxic than 1-octen-3-ol,[6],about 11 times
same,Catch of A. Albopictus,A. albopictus [1]; [13],26
same,pH,[7],<2 @ 25 °C
same,Capture count of flying insects,"flying insects; Liberty trap with CO2 plus lure, two-day period","about 4,700"
same,"Insect capture counts (FIG. 5), in words",flying insects,substantially improve insect capture counts
same,LD50/dermal/rabbit,[8],2000 mg/kg
same,Release rate,"[9]; 87° F., time released 0-48 hrs, impregnated frit",4.0 to 20 mg/h
same,Release rate,"[9]; 87° F., time released 3-8 days, impregnated frit",2.0 to 3.5 mg/h
same,Release rate,"[9]; 97-100° F., 5-9th day, same sample tested before at 87° F.",5.0 to 7.1 mg/h
same,Estimated time of use of cartridge,"[9]; cartridge of 3.5 g liquid L-(+)-lactic acid, average release rate 5 mg/hr to 10 mg/hr",2 to 4 weeks
same,Total catch of mosquitoes,mosquitoes [2]; [13],313.5
"O=C=O [CO2, carbon dioxide]",Total catch of mosquitoes (Culex pipiens pallens),Culex pipiens pallens,605
